Experiments:
MDA-MB-231 cells [1] = experiment: Annexin V/PI staining analysis (FACS); format: cell-based, human; conditions: MDA-MB-231, PAA 0.2 mM, 24 hours
Experimental: (FIGS. 1D, E and F) show effects of PAA on apoptosis of breast cancer cells. MDA-MB-231 cells were treated with PAA for 24 hours, and apoptotic cells were analyzed by FACS using an Annexin V-PI staining kit. Caspase 3/7 activity in MDA-MB-231 cells was analyzed using a Caspase-Gloss 3/7 kit. By fluorescent staining, apoptotic cells were analyzed and nuclei thereof were stained with Hoechst 33258 in breast cancers (magnified, 200×) (FIG. 1);
[…] In accordance with the manufacturer's instructions, the cancer cells were double-stained with PI and FITC-Annexin V. The sample was analyzed by flow cytometry (Accuri C6, BD, San Diego, Calif., USA).

mammospheres = experiment: Growth of mammospheres (cell counting); format: cell-based
Experimental: PAA inhibits growth of mammospheres. Mammospheres treated with PAA and DMSO for 2 days were separated into single cells and the equal number of cells were seeded on a 6 cm dish. 24 hours after seeding, the cells were counted. At 2- and 3-days, the cells were counted three times and plotted by the mean of the number. The data was represented by mean±standard deviation (SD). * means P<0.05, as compared to DMSO-treated control group;
Accordingly, for PAA, the levels of ROSs in breast cancer stem cells were investigated. As a result, PAA induced ROS activity in MDA-MB-231 cells (FIG. 7B). Next, in order to identify whether or not PAA inhibits proliferation of mammospheres, the mammospheres were treated with PAA and the cell number of mammospheres was counted.

ROSs in MDA-MB-231 cells = experiment: Measurement of ROS activity (ROS-Glo H2O2 assay); format: cell-based, human
Experimental: ROSs in cells were analyzed using a ROS-Glo™ H2O2 assay kit. PAA induced ROS production of breast cancers;
Cancer cells were cultured on a 96-well white plate and cultured together with PAA (0.5 mM) or DMSO for 24 hours. In accordance with the manufacturer's instructions, ROS was measured using an ROS-Glo™ H2O2 detection solution (Promega, Wis., USA). 100 μl of the ROS-Glo™ H2O2 detection solution was added to a 96-well white plate containing breast cancer cells, cultured at room temperature for 20 minutes, and relative luminance was recorded using a plate reader, luminometer, GloMax® Explorer (Promega, Wis., USA).

secreted IL-6 = experiment: Western blot of secreted IL-6 in mammosphere culture solution; format: cell-based, human; conditions: culture solution of mammospheres
Source text: PAA reduces extracellular IL-6 protein levels in mammosphere culture;
The secreted IL-6 is known to play a key role in the formation of mammospheres (Sansone P, Storci G, Tavolari S, Guarnieri T, Giovannini C, Taffurelli M, Ceccarelli C, Santini D, Paterini P, Marcu K B, Chieco P and Bonafe M. IL-6 triggers malignant features in mammospheres from human ductal breast carcinoma and normal mammary gland. J Clin Invest. 2007; 117(12):3988-4002). Accordingly, in order to investigate the amount of produced secreted IL-6, western blot analysis was conducted in a culture solution of mammospheres using IL-6 antibodies. […] The internal control group was used to count mammospheres before and after treatment with PAA.

MDA-MB-231 cells [2] = experiment: Cell proliferation (MTS) analysis, MDA-MB-231; format: cell-based, human; conditions: MDA-MB-231, 48 hours after PAA treatment
Experimental: (FIGS. 1A, B and C) show chemical structures of PAA and viability of MCF-7 and MDA-MB-231 cells depending on PAA. MCF-7 and MDA-MB-231 cells were treated with increasing concentrations of PAA for 48 hours. Anti-proliferation effects of PAA were measured by MTS analysis.
Proliferation rates of MCF-7 and MDA-MB-231 cells were measured using a CellTiter 96® aqueous one solution cell proliferation kit. MCF-7 and MDA-MB-231 cells were cultured in the presence of PAA (0.1, 0.2, 0.5, 1 and 2 mM) on a 96-well plate for 48 hours. In accordance with the manufacturer's protocol, absorbance at 490 nm was determined using a 96-well plate reader (Dynex Revelation, Dynex Ltd., Billingshurst, UK). All data was determined by measurement of three sets.
In order to investigate anti-proliferation effects of PAA in human breast cancer cell lines, i.e., MCF-7 and MDA-MB-231, the cancer cell lines were treated with different concentrations of PAA and then MTS analysis was conducted.

[3] = tested on: MCF-7 cell-derived mammospheres; experiment: Mammosphere formation, MCF-7-derived; format: cell-based, human
Experimental: FIGS. 4A, 4B and 4C show effects of PAA on formation of MCF-7 cell-derived mammospheres. Primary mammospheres were cultured together with PAA (0.2 and 0.5 mM) or DMSO;
Human breast cancer cells, i.e., MCF-7 and MDA-MB-231, were commercially obtained from American Type Culture Collection (ATCC; Manassas, Va., USA). MCF-7 and MDA-MB-231 cells were cultured in Dulbecco's modified essential medium (DMEM; Hyclone, Logan, Utah, USA) containing 10% fetal bovine serum (FBS; Hyclone), 100 U/mL of penicillin, and 100 μg/mL of streptomycin (Hyclone). The MCF-7 and MDA-MB-231 cells were maintained at 37° C. in a 5% CO2-containing humidified incubator. The cells were plated at a density of 1×10^6 on a 10 cm petri dish. In order to establish primary mammospheres, single cell-suspended MCF-7 and MDA-MB-231 cells were seeded at a density (cells/well) of 3.5×10^4 to 4×10^4 and 0.5×10^4 to 1×10^4, respectively, on ultra-low attachment 6-well plates containing 2 ml complete MammoCult™ medium (StemCell Technologies, Vancouver, BC, Canada). The complete MammoCult™ medium was supplemented with 4 μg/mL of heparin, 0.48 μg/mL of hydrocortisone, 100 U/mL of penicillin and 100 μg/mL of streptomycin. The cells were cultured for 7 days in a 37° C. 5% CO2 incubator.
At 7 days of culture, the cell culture plate was disposed on a scanner (Epson Perfection V700 PHOTO, Epson Korea, Co, Seoul, Korea) to obtain an 8 bit gray scale image of mammospheres. The image was obtained at a low resolution (300 dpi) using an NICE software program and downloaded from ftp://ftp.nist.gov/pub/physics/mLclarke/NICE. For counting, preferred numbers of rows and columns (for example, 2×3 of 6-well plate) were selected to form regions of interest (ROIs), and an oval setting of the NICE program was selected and then respective ROIs were defined by moving the shapes of provided ROIs and controlling the sizes thereof. The background signal of the image was negated using a critical algorithm and the selected image was automatically counted. Regarding the mammosphere formation analysis, formation efficiency of mammospheres (MFE, %) was determined in accordance with the number of mammospheres per well/the total number of cells plated per well×100.

O=CCc1ccccc1 [PAA, phenylacetaldehyde]
number of breast cancer cells (Annexin V+) killed (MDA-MB-231 cells [1]): increased
apoptosis of mammospheres (mammospheres): induced apoptosis
proliferation of mammospheres (mammospheres; cell number counted after PAA treatment): greatly reduces
ROS activity (ROSs in MDA-MB-231 cells): induced
production level of secreted IL-6 (secreted IL-6): reduced
PAA concentration at which growth of the cell line was concentration-dependently inhibited (MDA-MB-231 cells [2]): ≥ 100 μm
size of mammospheres ([3]; MCF-7-derived, 7 days): reduced
formation of primary mammospheres derived from MCF-7 cells ([3]; volatile materials exposed to MCF-7 (FIG. 5B)): potently inhibited

From US11324706B2, “Composition for inhibiting growth of breast cancer stem cells containing phenylacetaldehyde” (JEJU NATIONAL UNIVERSITY INDUSTRY-ACADEMIC COOPERATION …, priority 2016, dated 2022)
